This passage reports fold induction and Emax results from patent publication US7863315B2, “2-indolinone derivatives as selective histone deacetylase inhibitors” (Shenzhen Chipscreen Biosciences, Ltd., priority 2008, dated 2011).

The fold induction is the ratio of treated to control signal.

Test [1] concerns the target T1, HDAC6 (α-tubulin acetylation) (Homo sapiens, UniProt Q9UBN7).
T1 construct: endogenous in cells; host or cells: HeLa
T1 sequence (Q9UBN7 1-1215): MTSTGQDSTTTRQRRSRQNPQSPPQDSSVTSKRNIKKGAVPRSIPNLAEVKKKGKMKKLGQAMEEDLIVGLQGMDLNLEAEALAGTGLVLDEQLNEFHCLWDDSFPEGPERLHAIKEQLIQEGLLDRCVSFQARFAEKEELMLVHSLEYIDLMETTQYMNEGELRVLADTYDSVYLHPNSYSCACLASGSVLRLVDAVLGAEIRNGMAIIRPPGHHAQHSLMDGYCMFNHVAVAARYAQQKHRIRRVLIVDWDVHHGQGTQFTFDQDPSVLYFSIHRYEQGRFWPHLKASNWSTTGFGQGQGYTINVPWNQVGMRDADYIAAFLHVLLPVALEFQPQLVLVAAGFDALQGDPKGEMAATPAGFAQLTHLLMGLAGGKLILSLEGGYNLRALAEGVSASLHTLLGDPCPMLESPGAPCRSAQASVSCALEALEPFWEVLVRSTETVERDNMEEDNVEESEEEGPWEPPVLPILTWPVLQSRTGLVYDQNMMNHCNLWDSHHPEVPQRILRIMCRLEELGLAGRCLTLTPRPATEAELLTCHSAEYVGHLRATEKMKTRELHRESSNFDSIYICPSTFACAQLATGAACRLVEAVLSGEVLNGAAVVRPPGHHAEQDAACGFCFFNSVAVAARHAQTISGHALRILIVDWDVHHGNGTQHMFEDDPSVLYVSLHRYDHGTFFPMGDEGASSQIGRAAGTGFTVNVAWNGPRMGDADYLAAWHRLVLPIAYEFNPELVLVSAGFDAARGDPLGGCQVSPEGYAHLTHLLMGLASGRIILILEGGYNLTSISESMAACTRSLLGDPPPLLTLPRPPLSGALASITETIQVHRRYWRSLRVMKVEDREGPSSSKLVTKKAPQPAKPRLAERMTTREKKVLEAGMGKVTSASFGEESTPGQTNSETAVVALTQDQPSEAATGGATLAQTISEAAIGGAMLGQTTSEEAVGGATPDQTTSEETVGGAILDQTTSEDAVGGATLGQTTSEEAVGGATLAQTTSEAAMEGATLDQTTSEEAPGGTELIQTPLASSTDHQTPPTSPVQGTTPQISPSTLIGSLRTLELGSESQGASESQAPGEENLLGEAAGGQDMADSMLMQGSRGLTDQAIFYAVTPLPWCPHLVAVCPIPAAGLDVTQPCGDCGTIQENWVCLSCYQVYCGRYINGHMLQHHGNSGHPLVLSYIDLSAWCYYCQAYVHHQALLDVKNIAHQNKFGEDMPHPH
Kind of test: ELISA assay of acetylation of α-tubulin in HeLa cells. The test is classed as cell-based. To be noted: M-HeLa, 24 hours. The protocol:
Measurement of acetylation activity in cells on substrates:
ELISA assay of acetylation of α-tubulin
This assay is used to measure in vivo inhibition of HDAC6 in a cytoblot assay. Materials and Reagent: • 1. 24-well tissue culture • 2. DMEM Medium containing 10% FBS • 3. 96-well white plate • 4. HeLa cell line • 5. M-PER Mammalian Protein Extraction Reagent (Pierce) • 6. Bradford assay reagent • 7. Anti-acetyl-tubulin (Upstate) • 8. HRP-labeled anti-mouse IgG (Upstate) • 9. Coating Buffer: 15 mM Na2CO3, 35 mM NaHCO3 (pH 9.6) • 10. 10×PBS: 0.58 M Na2HPO4, 0.17M NaH2PO4, 0.68M NaCl (pH 7.4) • 11. Wash Buffer:1×PBS containing 0.05% Tween-20 (PBST) • 12. Blocking Buffer:10 mg/ml bocine serum albumin (BSA) in PBS • 13. Antibody Dilution Buffer: 5 mg/ml BSA in PBST • 14. Enhanced chemiluminescence (ECL) (Amersham)
Procedure for performing the assay in 96-well plate: • 1. HeLa cells were seeded at a density of 60000 cells/500 μl/well in 24-well plate and incubated at 37° C. for 24 hours. • 2. Compounds were added and incubated for 24 hours at 37° C. • 3. Culture medium was removed, then washes the cells twice with ice-cold PBS. • 4. Add 100 μl/well of Protein Extraction Reagent and gently shake the mixture for 5 minutes. • 5. Collect the lysate to a 96-well plate respectively. Determine the concentration of protein by Bradford assay. • 6. Coat the wells of a 96-well white plate with 100 μl/well of 2.5 μg whole cell protein in Coating Buffer by incubating overnight at 4° C. • 7. Discard the uncoated proteins and wash the coated wells three times with 200 μl/well of PBST. • 8. Block coated wells by incubating the plate with 200 μl/well of Blocking Buffer for 1 hour at 37° C. • 9. Wells were aspirated and washed three times with 200 μl/well of PBST. • 10. After aspirating, 50 μl/well of Antibody Dilution Buffer containing anti-Ac-tubulin (1:1000) were added to each well and incubated for 2 hour at 37° C. • 11. Wells were aspirated and washed three times with 200 μl/well of PBST. • 12. 50 μl/well of Antibody Dilution Buffer containing HRP-labeled anti-mouse IgG (1:2000) were added to each well and incubated for 2 hour at 37° C. • 13. Wells were aspirated and washed three times with 200 μl/well of PBST. • 14. Wells were washed three times with 200 μl/well of purified water. • 15. Add 50 μl/well of ECL mixture, then read the plates on the plate reader.
In general terms: ELISA stands for enzyme-linked immunosorbent assay.

Test [2] deals with HDAC3 (gdf11 reporter gene). Kind of test: HDAC subtype reporter gene assay, gdf11-promoter luciferase in HeLa cells. The test is classed as cell-based. Conditions: Homo sapiens, M-HeLa, read-out: % of SAHA Response for HDAC3 at 10 μM (gdf11 reporter gene), 24 hours. How it is done:
Measurement of inhibition of HDAC subtypes activity in cells by reporter gene assay: HDAC subtype selectivity inhibition assay of tested compounds was carried out by several reporter gene assays experiments. Briefly, HeLa cells were seeded in 96-well plates the day before transfection to give a confluence of 50-80%. Cells were transfected with one of reporter gene plasmids containing a promoter sequences or response elements upstream of a luciferase gene construct using FuGene6 transfection reagent according to the manufacturer's instructions (Roche). The promoters or response elements including p21-promoter, gdf11-promoter, MEF-binding element (MEF2), Nur77-promoter were fused upstream to the luciferase gene reporter construct. For normalizing the transfection efficiency, a GFP expression plasmid was cotransfected. Cells were allowed to express protein for 24 hours followed by addition of individual compounds or the vehicle (DMSO). 24 hours later, the cells were harvested and the luciferase assays were performed using the luciferase assay kit according to the manufacturer's instructions (Promega). To normalize the data from the luciferase assays, GFP activity from transfected cells was measured in a microtiter-plate reading fluorimeter capable of excitation at a wavelength at 485 nm and detection of emitted light at 527 nm.
For orientation: Reporter assays use an easily measured gene product as a stand-in for the process of interest.

With `Cc1[nH]c(/C=N/N=C2\C(=O)Nc3ccc(F)cc32)c(C)c1C(=O)NCCCCC(=O)Nc1ccccc1N` [Example 7, 5-(5-(((5-fluoro-2-oxoindolin-3-ylidene)hydrazono)methyl)-2,4-dimethyl-1H-pyrrole-3-carboxamido)-N-(2-aminophenyl)pentanamide], the fold induction at 10 µM in test [1] stood at 1.03. The Emax at 10 µM in test [2] turned out to be 7%.

Turning to `Cc1[nH]c(/C=N/N=C2\C(=O)Nc3ccc(F)cc32)c(C)c1C(=O)NCCCCC(=O)Nc1ccc(F)cc1N` [Example 8, 5-(5-(((5-fluoro-2-oxoindolin-3-ylidene)hydrazono)methyl)-2,4-dimethyl-1H-pyrrole-3-carboxamido)-N-(2-amino-4-fluorophenyl)pentanamide], the fold induction at 10 µM in test [1] came to 1.76. For the same molecule, the Emax at 10 µM in test [2] is 5%.

Consider `Cc1[nH]c(/C=N/N=C2\C(=O)Nc3ccc(F)cc32)c(C)c1C(=O)NCCCCCC(=O)NO` [Example 11, 6-(5-(((5-fluoro-2-oxoindolin-3-ylidene)hydrazono)methyl)-2,4-dimethyl-1H-pyrrole-3-carboxamido)-N-hydroxyhexanamide], for which, in test [1], the fold induction at 10 µM is 2.17. Also, in test [2], the Emax at 10 µM stood at 49%.

For `Cc1[nH]c(/C=N/N=C2\C(=O)Nc3ccc(F)cc32)c(C)c1C(=O)NCCCCCC(=O)Nc1ccc(F)cc1N` [Example 12, 6-(5-(((5-fluoro-2-oxoindolin-3-ylidene)hydrazono)methyl)-2,4-dimethyl-1H-pyrrole-3-carboxamido)-N-(2-amino-4-fluorophenyl)hexanamide], the fold induction at 10 µM in test [1] turned out to be 2.04. Besides, the Emax at 10 µM in test [2] is 6%.

Regarding `Cc1[nH]c(/C=N/N=C2\C(=O)Nc3ccc(F)cc32)c(C)c1C(=O)NCCCCCC(=O)Nc1ccccc1N` [Example 13, 6-(5-(((5-fluoro-2-oxoindolin-3-ylidene)hydrazono)methyl)-2,4-dimethyl-1H-pyrrole-3-carboxamido)-N-(2-aminophenyl)hexanamide], in test [1], the fold induction at 10 µM came to 2.73. Moreover, the Emax at 10 µM in test [2] is 13%.

As for `Cc1[nH]c(/C=N/N=C2\C(=O)Nc3ccc(F)cc32)c(C)c1C(=O)NCCCCCCCC(=O)NO` [Example 26, 8-(5-(((5-fluoro-2-oxoindolin-3-ylidene)hydrazono)methyl)-2,4-dimethyl-1H-pyrrole-3-carboxamido)-N-hydroxyoctanamide], in test [1], the fold induction at 10 µM came out at 1.85. The Emax at 10 µM in test [2] came to 38%.

In the case of `Cc1[nH]c(/C=N/N=C2\C(=O)Nc3ccc(F)cc32)c(C)c1C(=O)NCCCCCCCC(=O)Nc1ccc(F)cc1N` [Example 27, 8-(5-(((5-fluoro-2-oxoindolin-3-ylidene)hydrazono)methyl)-2,4-dimethyl-1H-pyrrole-3-carboxamido)-N-(2-amino-4-fluorophenyl)octanamide], the fold induction at 10 µM in test [1] was 1.64. The Emax at 10 µM in test [2] is 6%.

For `Cc1[nH]c(/C=N/N=C2\C(=O)Nc3ccc(F)cc32)c(C)c1C(=O)NCCCCCCCC(=O)Nc1ccccc1N` [Example 28, 8-(5-(((5-fluoro-2-oxoindolin-3-ylidene)hydrazono)methyl)-2,4-dimethyl-1H-pyrrole-3-carboxamido)-N-(2-aminophenyl)octanamide], in test [1], the fold induction at 10 µM stood at 1.74. In addition, the Emax at 10 µM in test [2] came out at 26%.

For `O=C(CCCCCNC(=O)c1ccc(/C=N/N=C2\C(=O)Nc3ccc(F)cc32)cc1)NO` [Example 31, 6-(4-(((5-fluoro-2-oxoindolin-3-ylidene)hydrazono)methyl)benzamido)-N-hydroxyhexanamide], the fold induction at 10 µM in test [1] is 1.88. Further, in test [2], the Emax at 10 µM is 36%.

As for `Nc1ccccc1NC(=O)CCCCCNC(=O)c1ccc(/C=N/N=C2\C(=O)Nc3ccc(F)cc32)cc1` [Example 32, 6-(4-(((5-fluoro-2-oxoindolin-3-ylidene)hydrazono)methyl)benzamido)-N-(2-aminophenyl)hexanamide], the fold induction at 10 µM in test [1] turned out to be 2.59. Moreover, the Emax at 10 µM in test [2] is 12%.

As to `Nc1ccccc1NC(=O)CCCCCCCNC(=O)c1ccc(/C=N/N=C2\C(=O)Nc3ccc(F)cc32)cc1` [Example 35, 8-(4-(((5-fluoro-2-oxoindolin-3-ylidene)hydrazono)methyl)benzamido)-N-(2-aminophenyl)octanamide], the fold induction at 10 µM in test [1] worked out at 1.39. The Emax at 10 µM in test [2] was 36%.

With `Nc1cc(F)ccc1NC(=O)CCCCCCCNC(=O)c1ccc(/C=N/N=C2\C(=O)Nc3ccc(F)cc32)cc1` [Example 36, 8-(4-(((5-fluoro-2-oxoindolin-3-ylidene)hydrazono)methyl)benzamido)-N-(2-amino-4-fluorophenyl)octanamide], the fold induction at 10 µM in test [1] came out at 1.57. The Emax at 10 µM in test [2] is 6%.

As to `Nc1ccccc1NC(=O)CCCCCNC(=O)c1ccc(/C=C2\C(=O)Nc3ccc(F)cc32)cc1` [Example 39, 6-(4-((5-fluoro-2-oxoindolin-3-ylidene)methyl)benzamido)-N-(2-aminophenyl)hexanamide], in test [1], the fold induction at 10 µM was 0.93. Further, in test [2], the Emax at 10 µM is 41%.

Turning to `Nc1cc(F)ccc1NC(=O)CCCCCNC(=O)c1ccc(/C=C2\C(=O)Nc3ccc(F)cc32)cc1` [Example 40, 6-(4-((5-fluoro-2-oxoindolin-3-ylidene)methyl)benzamido)-N-(2-amino-4-fluorophenyl)hexanamide], in test [1], the fold induction at 10 µM was determined as 1.04. Further, in test [2], the Emax at 10 µM turned out to be 13%.

With `O=C(CCCCCNC(=O)c1ccc(/C=C2\C(=O)Nc3ccc(F)cc32)cc1)NO` [Example 41, 6-(4-((5-fluoro-2-oxoindolin-3-ylidene)methyl)benzamido)-N-hydroxyhexanamide], the fold induction at 10 µM in test [1] was found to be 1.47. For the same molecule, the Emax at 10 µM in test [2] is 11%.
